Test results taken from US20230257372A1 (CHONG KUN DANG PHARMACEUTICAL CORP., priority 2020, published 2023).
Read-outs that look alike come from different tables or passages of the source.

Columns and labels:
human recombinant HDAC1 = target: T1, human recombinant HDAC1 (Homo sapiens, UniProt Q13547); assay: HDAC1 enzyme activity inhibition (HDAC Fluorimetric Drug Discovery Kit); type: biochemical; details: read-out: HDAC1
T1 construct: purchased Enzo Life Science, Inc. BML-SE456
Procedure, shortened: (§1)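 Fluorimetric deacetylase read-out: after 30 min with Developer II following a 60 min, 30° C reaction of recombinant enzyme ([…]) with 10 μM substrate, across five-fold serial compound dilutions.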

human recombinant HDAC6 = target: T2, human recombinant HDAC6 (Homo sapiens, UniProt Q9UBN7); assay: HDAC6 enzyme activity inhibition (HDAC Fluorimetric Drug Discovery Kit); type: biochemical
T2 construct: purchased Calbiochem Inc. 382180
T2 sequence (Q9UBN7 1-1215): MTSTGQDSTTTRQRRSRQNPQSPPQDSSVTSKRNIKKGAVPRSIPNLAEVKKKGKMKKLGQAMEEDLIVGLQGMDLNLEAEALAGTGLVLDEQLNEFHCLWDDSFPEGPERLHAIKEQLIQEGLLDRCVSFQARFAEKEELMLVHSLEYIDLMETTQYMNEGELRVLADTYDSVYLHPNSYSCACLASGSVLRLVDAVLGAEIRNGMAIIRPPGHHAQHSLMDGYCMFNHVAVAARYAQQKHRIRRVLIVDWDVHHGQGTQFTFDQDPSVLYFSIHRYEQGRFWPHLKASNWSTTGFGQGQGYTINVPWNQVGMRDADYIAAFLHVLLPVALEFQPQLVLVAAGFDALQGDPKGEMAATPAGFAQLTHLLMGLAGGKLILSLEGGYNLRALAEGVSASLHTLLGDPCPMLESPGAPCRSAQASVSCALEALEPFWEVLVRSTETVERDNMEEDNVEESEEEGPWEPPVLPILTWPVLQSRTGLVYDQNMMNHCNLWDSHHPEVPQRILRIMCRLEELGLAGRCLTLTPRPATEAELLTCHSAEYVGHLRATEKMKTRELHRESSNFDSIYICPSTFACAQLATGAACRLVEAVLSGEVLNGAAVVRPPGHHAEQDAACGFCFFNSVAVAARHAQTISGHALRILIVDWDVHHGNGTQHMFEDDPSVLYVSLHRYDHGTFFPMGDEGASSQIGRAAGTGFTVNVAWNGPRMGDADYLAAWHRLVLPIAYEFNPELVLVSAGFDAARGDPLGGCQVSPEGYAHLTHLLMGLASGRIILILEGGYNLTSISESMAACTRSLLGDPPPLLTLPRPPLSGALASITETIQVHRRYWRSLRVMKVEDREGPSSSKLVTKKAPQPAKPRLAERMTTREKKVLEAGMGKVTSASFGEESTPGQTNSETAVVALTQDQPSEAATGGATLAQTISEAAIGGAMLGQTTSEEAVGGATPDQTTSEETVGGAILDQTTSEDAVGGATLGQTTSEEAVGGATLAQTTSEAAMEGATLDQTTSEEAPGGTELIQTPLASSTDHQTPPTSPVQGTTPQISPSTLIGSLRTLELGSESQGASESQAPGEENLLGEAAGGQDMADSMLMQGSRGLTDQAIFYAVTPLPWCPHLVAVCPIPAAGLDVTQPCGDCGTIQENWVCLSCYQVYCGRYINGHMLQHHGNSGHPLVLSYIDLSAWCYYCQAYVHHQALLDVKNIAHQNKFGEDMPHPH
Procedure, shortened: as §1

[1] = test system: hippocampal neurons from a Sprague-Dawley (SD) rat fetus; assay: Effect of HDAC6-specific inhibitor on axonal transport of mitochondria in amyloid-beta treated neurons; type: cell-based; details: transport velocity of mitochondria in neuronal axon after normalization; vehicle = 100%, amyloid beta treatment group = 0%; compound treatment for three hours
Procedure, shortened: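 Rat E17-18 hippocampal neurons exposed to amyloid-beta fragments […]; after 24 h (day 8 in vitro) compound added for 3 h, mitochondria stained with MitoTracker Red CMXRos. Confocal imaging every 1 s for 1 min gave per-mitochondrion velocity, normalized vehicle = 100%, amyloid-beta = 0%.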

[2] = human recombinant HDAC1, IC50 calculated with GraphPad Prism
[3] = human recombinant HDAC6, IC50 calculated with GraphPad Prism
[4] = human recombinant HDAC1, Fluor de Lys substrate, 30° C. 60 minutes
[5] = human recombinant HDAC6, same protocol as HDAC1

T1 sequence (Q13547 whole entry): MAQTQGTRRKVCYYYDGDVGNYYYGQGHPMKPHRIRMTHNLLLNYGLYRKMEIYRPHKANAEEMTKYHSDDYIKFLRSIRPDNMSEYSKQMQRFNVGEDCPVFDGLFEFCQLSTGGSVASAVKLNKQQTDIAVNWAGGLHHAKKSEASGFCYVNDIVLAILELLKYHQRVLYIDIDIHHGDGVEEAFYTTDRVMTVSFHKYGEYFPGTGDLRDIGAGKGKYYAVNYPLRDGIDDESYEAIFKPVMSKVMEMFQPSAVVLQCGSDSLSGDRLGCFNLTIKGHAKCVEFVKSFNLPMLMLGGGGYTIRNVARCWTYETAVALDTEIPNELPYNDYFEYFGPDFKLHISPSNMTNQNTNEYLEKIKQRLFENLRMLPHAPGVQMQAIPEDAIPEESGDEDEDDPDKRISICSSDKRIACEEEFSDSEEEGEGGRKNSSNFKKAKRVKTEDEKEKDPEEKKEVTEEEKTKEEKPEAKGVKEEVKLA

| SMILES | IC50 (human recombinant HDAC1; [2]) | HDAC6 selectivity (fold) (human recombinant HDAC6; HDAC1 IC50 / HDAC6 IC50) | IC50 (human recombinant HDAC6; [3]) | Velocity distribution (%) [1] | IC50 (human recombinant HDAC1; [4]) | HDAC6 selectivity (fold) (human recombinant HDAC6; HDAC6 over HDAC1) | IC50 (human recombinant HDAC6; [5]) |
| --- | --- | --- | --- | --- | --- | --- | --- |
| Fc1cc(-c2cn(Cc3ccc(-c4nnc(C(F)F)o4)cn3)nn2)ccn1 [Compound 4185, 2-(difluoromethyl)-5-(6-((4-(2-fluoropyridin-4-yl)-1H-1,2,3-triazol-1-yl)methyl)pyridin-3-yl)-1,3,4-oxadiazole] | > 50000 nM | 729 fold | 68.5 nM | *** (***, >100%) | – | – | – |
| Cn1ccc2ccc(-c3cn(Cc4ccc(-c5nnc(C(F)F)o5)cn4)nn3)cc21 [Compound 3914, 2-(difluoromethyl)-5-(6-((4-(1-methyl-1H-indol-6-yl)-1H-1,2,3-triazol-1-yl)methyl)pyridin-3-yl)-1,3,4-oxadiazole] | > 50000 nM | 1190 fold | 43.2 nM | * (*, 0%˜50%) | – | – | – |
| FC(F)c1nnc(-c2ccc(Cn3cc(-c4ccc5cc[nH]c5c4)nn3)nc2)o1 [Compound 3838, 2-(6-((4-(1H-indol-6-yl)-1H-1,2,3-triazol-1-yl)methyl)pyridin-3-yl)-5-(difluoromethyl)-1,3,4-oxadiazole] | > 50000 nM | 7142 fold | 7 nM | * (*, 0%˜50%) | – | – | – |
| Fc1cc(-c2nnc(C(F)F)o2)ccc1Cn1cc(-c2cccc3[nH]ncc23)nn1 [Compound 4348, 2-(4-((4-(1H-indazol-4-yl)-1H-1,2,3-triazol-1-yl)methyl)-3-fluorophenyl)-5-(difluoromethyl)-1,3,4-oxadiazole] | > 50000 nM | 7352 fold | 6.8 nM | ** (**, 50%˜100%) | – | – | – |
| FC(F)c1nnc(-c2ccc(Cn3cc(-c4cncc(Br)c4)nn3)nc2)o1 [Compound 4182, 2-(6-((4-(5-bromopyridin-3-yl)-1H-1,2,3-triazol-1-yl)methyl)pyridin-3-yl)-5-(difluoromethyl)-1,3,4-oxadiazole] | > 50000 nM | 2252 fold | 22.2 nM | ** (**, 50%˜100%) | – | – | – |
| FC(F)c1nnc(-c2ccc(Cn3cc(-c4ccc5c(CN6CCCC6)c[nH]c5c4)nn3)cc2)o1 [Compound 4108, 2-(difluoromethyl)-5-(4-((4-(3-(pyrrolidin-1-ylmethyl)-1H-indol-6-yl)-1H-1,2,3-triazol-1-yl)methyl)phenyl)-1,3,4-oxadiazole] | > 50000 nM | 5882 fold | 8.5 nM | *** (***, >100%) | – | – | – |
| FC(F)c1nnc(-c2ccc(Cn3cc(-c4ccc5[nH]ccc5c4)nn3)cc2)o1 [Compound 4080, 2-(4-((4-(1H-indol-5-yl)-1H-1,2,3-triazol-1-yl)methyl)phenyl)-5-(difluoromethyl)-1,3,4-oxadiazole] | > 50000 nM | 2145 fold | 23.3 nM | *** (***, >100%) | – | – | – |
| CN(C)Cc1ccc(-c2cn(Cc3ncc(-c4nnc(C(F)F)o4)cc3F)nn2)cc1 [Compound 18308, 1-(4-(1-((5-(5-(difluoromethyl)-1,3,4-oxadiazol-2-yl)-3-fluoropyridin-2-yl)methyl)-1H-1,2,3-triazol-4-yl)phenyl)-N,N-dimethylmethanamine] | – | – | – | *** (***, >100%) | > 50000 nM | 770 fold | 64.9 nM |
| Fc1cc(-c2nnc(C(F)F)o2)ccc1Cn1cc(-c2cccc(N3CCN(C4COC4)CC3)c2)nn1 [Compound 4375, 2-(difluoromethyl)-5-(3-fluoro-4-((4-(3-(4-(oxetan-3-yl)piperazin-1-yl)phenyl)-1H-1,2,3-triazol-1-yl)methyl)phenyl)-1,3,4-oxadiazole] | > 50000 nM | 1428 fold | 35 nM | * (*, 0%˜50%) | – | – | – |
| CC1CCN(Cc2c[nH]c3cc(-c4cn(Cc5ccc(-c6nnc(C(F)F)o6)cn5)nn4)ccc23)CC1 [Compound 4111, 2-(difluoromethyl)-5-(6-((4-(3-((4-methylpiperidin-1-yl)methyl)-1H-indol-6-yl)-1H-1,2,3-triazol-1-yl)methyl)pyridin-3-yl)-1,3,4-oxadiazole] | > 50000 nM | 4587 fold | 10.9 nM | ** (**, 50%˜100%) | – | – | – |
| FC(F)c1nnc(-c2ccc(Cn3cc(-c4cccc(N5CCN(C6COC6)CC5)c4)nn3)cc2)o1 [Compound 4370, 2-(difluoromethyl)-5-(4-((4-(3-(4-(oxetan-3-yl)piperazin-1-yl)phenyl)-1H-1,2,3-triazol-1-yl)methyl)phenyl)-1,3,4-oxadiazole] | > 50000 nM | 715 fold | 69.9 nM | *** (***, >100%) | – | – | – |
| CN(C)Cc1ccc(-c2cn(Cc3ccc(-c4nnc(C(F)F)o4)cc3F)nn2)nc1 [Compound 17534, 1-(6-(1-(4-(5-(difluoromethyl)-1,3,4-oxadiazol-2-yl)-2-fluorobenzyl)-1H-1,2,3-triazol-4-yl)pyridin-3-yl)-N,N-dimethylmethanamine] | – | – | – | *** (***, >100%) | > 50000 nM | 1319 fold | 37.9 nM |
| Fc1cc(-c2nnc(C(F)F)o2)ccc1Cn1cc(-c2ccc(CN3CC[C@H](F)C3)cn2)nn1 [Compound 18185, (S)-2-(difluoromethyl)-5-(3-fluoro-4-((4-(5-((3-fluoropyrrolidin-1-yl)methyl)pyridin-2-yl)-1H-1,2,3-triazol-1-yl)methyl)phenyl)-1,3,4-oxadiazole] | – | – | – | *** (***, >100%) | > 50000 nM | 806 fold | 62 nM |
| CN(C)Cc1c[nH]c2cc(-c3cn(Cc4ccc(-c5nnc(C(F)F)o5)cn4)nn3)ccc12 [Compound 3962, 1-(6-(1-((5-(5-(difluoromethyl)-1,3,4-oxadiazol-2-yl)pyridin-2-yl)methyl)-1H-1,2,3-triazol-4-yl)-1H-indol-3-yl)-N,N-dimethylmethanamine] | > 50000 nM | 4629 fold | 10.8 nM | *** (***, >100%) | – | – | – |
